Assay results taken from ChEMBL document CHEMBL1909046, “DrugMatrix in vitro pharmacology data”.

Assays:
[1] = biological target: T1, Muscarinic acetylcholine receptor M4 (Homo sapiens, UniProt P08173); type: cell membranes, CHO-K1, Membrane; note: in other assays of this panel Not Active means under 50% inhibition at 10 µM
T1 sequence (P08173 whole entry): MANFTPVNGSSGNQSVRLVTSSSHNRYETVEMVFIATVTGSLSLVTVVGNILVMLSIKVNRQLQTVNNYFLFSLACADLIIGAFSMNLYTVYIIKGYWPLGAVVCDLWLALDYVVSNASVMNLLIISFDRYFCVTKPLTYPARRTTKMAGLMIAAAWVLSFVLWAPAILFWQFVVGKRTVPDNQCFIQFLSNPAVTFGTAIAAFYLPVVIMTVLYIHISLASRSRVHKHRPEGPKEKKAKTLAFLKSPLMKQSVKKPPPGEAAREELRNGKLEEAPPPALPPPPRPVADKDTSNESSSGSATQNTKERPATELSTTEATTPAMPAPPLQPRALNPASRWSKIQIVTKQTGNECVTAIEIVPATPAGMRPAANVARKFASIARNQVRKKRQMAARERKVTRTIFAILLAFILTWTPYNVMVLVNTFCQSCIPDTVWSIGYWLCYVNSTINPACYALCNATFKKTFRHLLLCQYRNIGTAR

Nitric oxide synthase 1 = Nitric oxide synthase 1 (Rattus norvegicus, UniProt P29476); type: tissue-based, Cerebellum; note: in other assays of this panel Not Active means under 50% inhibition at 10 µM
Sequence of Nitric oxide synthase 1 (P29476 whole entry): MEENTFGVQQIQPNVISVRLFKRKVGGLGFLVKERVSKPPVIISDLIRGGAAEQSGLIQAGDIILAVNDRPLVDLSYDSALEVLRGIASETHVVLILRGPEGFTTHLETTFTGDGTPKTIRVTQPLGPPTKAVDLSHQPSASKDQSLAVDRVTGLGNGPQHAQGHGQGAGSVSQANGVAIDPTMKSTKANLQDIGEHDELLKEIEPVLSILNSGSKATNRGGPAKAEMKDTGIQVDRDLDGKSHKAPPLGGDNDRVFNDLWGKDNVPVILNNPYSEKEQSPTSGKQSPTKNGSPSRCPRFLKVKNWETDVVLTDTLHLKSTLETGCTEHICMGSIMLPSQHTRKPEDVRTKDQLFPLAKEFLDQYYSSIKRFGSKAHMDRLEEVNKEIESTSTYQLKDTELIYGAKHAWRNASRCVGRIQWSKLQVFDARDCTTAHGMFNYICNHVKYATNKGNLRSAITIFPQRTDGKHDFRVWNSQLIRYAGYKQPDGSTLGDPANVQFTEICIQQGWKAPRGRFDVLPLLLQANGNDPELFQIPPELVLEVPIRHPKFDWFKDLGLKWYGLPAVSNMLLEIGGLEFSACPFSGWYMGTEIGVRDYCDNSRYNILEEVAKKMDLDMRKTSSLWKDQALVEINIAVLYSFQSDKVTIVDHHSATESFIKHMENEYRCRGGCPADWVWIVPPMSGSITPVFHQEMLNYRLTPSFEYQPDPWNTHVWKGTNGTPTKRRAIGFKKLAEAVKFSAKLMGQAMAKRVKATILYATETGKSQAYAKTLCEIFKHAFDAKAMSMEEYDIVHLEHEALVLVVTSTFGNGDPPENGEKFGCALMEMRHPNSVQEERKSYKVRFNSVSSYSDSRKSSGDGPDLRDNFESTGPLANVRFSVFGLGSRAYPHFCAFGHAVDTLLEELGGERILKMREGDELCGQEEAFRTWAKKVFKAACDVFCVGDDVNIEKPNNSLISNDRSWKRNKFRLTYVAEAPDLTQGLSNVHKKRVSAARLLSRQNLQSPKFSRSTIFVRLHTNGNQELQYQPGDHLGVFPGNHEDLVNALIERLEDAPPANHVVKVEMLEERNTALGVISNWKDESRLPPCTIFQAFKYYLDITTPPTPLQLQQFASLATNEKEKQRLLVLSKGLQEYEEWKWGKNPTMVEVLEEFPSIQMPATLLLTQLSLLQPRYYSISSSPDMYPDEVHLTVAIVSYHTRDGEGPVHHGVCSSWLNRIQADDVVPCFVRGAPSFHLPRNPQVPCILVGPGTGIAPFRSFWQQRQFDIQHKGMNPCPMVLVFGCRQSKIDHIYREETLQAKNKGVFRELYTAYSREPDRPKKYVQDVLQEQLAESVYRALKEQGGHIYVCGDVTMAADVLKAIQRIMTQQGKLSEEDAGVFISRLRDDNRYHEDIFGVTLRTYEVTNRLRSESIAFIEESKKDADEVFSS

[2] = biological target: 5-hydroxytryptamine receptor 2B (Homo sapiens, UniProt P41595); type: cell membranes, CHO-K1, Membrane; note: in other assays of this panel Not Active means under 50% inhibition at 10 µM
Sequence of 5-hydroxytryptamine receptor 2B (P41595 whole entry): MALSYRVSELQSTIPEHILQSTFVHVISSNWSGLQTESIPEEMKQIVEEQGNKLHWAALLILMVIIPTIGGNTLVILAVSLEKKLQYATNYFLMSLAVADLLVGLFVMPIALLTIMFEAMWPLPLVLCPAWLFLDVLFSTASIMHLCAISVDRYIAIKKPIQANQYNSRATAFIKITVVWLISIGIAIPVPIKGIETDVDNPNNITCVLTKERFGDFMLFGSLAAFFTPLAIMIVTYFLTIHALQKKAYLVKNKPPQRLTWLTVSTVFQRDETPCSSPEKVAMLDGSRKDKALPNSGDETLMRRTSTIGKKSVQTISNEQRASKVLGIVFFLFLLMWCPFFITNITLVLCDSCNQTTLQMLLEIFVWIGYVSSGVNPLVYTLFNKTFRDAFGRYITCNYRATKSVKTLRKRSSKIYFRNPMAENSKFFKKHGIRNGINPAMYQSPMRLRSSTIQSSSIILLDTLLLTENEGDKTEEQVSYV

Cytochrome P450 3A4 = Cytochrome P450 3A4 (Homo sapiens, UniProt P08684); conditions: bti-tn-5b1-4; note: in other assays of this panel Not Active means under 50% inhibition at 10 µM
Sequence of Cytochrome P450 3A4 (P08684 whole entry): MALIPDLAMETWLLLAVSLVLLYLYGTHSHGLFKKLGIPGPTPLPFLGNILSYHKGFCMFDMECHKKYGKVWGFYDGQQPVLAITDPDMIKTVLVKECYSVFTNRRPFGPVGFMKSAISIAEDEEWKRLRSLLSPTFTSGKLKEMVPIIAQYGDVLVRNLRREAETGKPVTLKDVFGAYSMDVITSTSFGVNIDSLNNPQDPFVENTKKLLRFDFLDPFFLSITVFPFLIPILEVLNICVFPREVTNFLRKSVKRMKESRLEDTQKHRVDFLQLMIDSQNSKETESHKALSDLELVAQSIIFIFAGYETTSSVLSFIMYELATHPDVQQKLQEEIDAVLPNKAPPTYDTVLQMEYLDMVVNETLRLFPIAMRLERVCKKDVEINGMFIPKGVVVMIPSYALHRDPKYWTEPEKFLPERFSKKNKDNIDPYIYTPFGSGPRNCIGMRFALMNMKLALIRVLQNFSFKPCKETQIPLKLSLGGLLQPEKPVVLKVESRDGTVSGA

Estrogen receptor = biological target: T2, Estrogen receptor (Homo sapiens, UniProt P03372); conditions: sf9; note: in other assays of this panel Not Active means under 50% inhibition at 10 µM
T2 sequence (P03372 whole entry): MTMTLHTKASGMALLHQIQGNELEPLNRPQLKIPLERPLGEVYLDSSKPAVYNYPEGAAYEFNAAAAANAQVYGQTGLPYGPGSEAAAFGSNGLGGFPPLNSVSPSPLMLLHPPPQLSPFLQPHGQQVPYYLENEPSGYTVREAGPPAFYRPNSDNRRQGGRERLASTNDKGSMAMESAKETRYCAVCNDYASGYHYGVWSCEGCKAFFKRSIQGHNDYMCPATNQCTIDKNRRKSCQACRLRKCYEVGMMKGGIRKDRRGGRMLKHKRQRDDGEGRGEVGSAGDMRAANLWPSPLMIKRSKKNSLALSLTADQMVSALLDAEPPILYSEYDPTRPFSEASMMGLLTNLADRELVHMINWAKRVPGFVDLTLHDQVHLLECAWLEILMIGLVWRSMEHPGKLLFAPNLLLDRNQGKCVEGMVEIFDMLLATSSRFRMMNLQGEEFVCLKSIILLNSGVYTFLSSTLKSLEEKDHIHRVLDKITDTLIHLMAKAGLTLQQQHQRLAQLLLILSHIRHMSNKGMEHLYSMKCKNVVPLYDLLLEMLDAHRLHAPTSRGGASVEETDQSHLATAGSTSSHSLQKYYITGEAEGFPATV

Vasopressin V1a receptor = Vasopressin V1a receptor (Homo sapiens, UniProt P37288); type: cell membranes, Membrane; conditions: hek293; note: in other assays of this panel Not Active means under 50% inhibition at 10 µM
Sequence of Vasopressin V1a receptor (P37288 whole entry): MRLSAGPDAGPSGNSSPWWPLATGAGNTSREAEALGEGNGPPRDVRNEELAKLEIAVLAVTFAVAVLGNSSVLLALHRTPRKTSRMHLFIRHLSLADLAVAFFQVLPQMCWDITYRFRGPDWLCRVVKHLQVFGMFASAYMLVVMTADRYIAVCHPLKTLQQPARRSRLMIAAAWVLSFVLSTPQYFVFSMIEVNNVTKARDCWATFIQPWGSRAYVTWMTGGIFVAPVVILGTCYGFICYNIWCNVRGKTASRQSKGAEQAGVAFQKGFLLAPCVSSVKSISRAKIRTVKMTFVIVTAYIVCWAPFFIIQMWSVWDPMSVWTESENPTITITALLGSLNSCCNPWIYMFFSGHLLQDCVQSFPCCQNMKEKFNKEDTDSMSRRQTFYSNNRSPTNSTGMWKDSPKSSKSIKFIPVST

[3] = DRUGMATRIX: Nicotinic Acetylcholine radioligand binding (ligand: [125I] Epibatidine); type: cell membranes, Membrane; conditions: imr-32; Not Active = under 50% inhibition at 10 µM

Row | Molecule | IC50 ([1]; cho-k1) | IC50 (Nitric oxide synthase 1) | IC50 ([2]; cho-k1) | IC50 (Cytochrome P450 3A4) | Ki (Cytochrome P450 3A4) | IC50 (Estrogen receptor) | IC50 (Vasopressin V1a receptor) | IC50 [3] | Ki [3] | IC50 ([2]; read-out: IC50) [nM] | Ki ([2]; read-out: Ki) [nM] | IC50 ([1]; read-out: IC50) [nM] | Ki ([1]; read-out: Ki) [nM] | Ki ([1]; cho-k1) | Ki (Nitric oxide synthase 1) | Ki ([2]; cho-k1) | Ki (Estrogen receptor) | Ki (Vasopressin V1a receptor)
1 | CCOC(N)=O | Not Active | Not Active | Not Active | Not Active | Not Active | Not Active | Not Active | Not Active | Not Active |  |  |  |  |  |  |  |  | 
2 | COc1ccc(CN2CCNCC2)c(OC)c1OC [TRIMETAZIDINE] | Not Active | Not Active | Not Active |  |  | Not Active | Not Active | Not Active | Not Active |  |  |  |  |  |  |  |  | 
3 | CC(=O)O[C@H]1C[C@@H]2CC[C@@H]3[C@H](CC[C@@]4(C)[C@H]3C[C@H]([N+]3(C)CCCCC3)[C@@H]4OC(C)=O)[C@@]2(C)C[C@@H]1N1CCCCC1.[Br-] [VECURONIUM BROMIDE] | Not Active | Not Active | Not Active | Not Active | Not Active | Not Active | Not Active | Not Active | Not Active |  |  |  |  |  |  |  |  | 
4 | C[C@@H]1C[C@H]2[C@@H]3CCC4=CC(=O)C=C[C@]4(C)C3=CC[C@]2(C)[C@H]1C(=O)CN1CCN(c2cc(N3CCCC3)nc(N3CCCC3)n2)CC1 [TIRILAZAD] | Not Active | Not Active |  | Not Active | Not Active | Not Active | Not Active | Not Active | Not Active | 18500 | 11800 |  |  |  |  |  |  | 
5 | CC(C)OC(=O)C(C)(C)Oc1ccc(C(=O)c2ccc(Cl)cc2)cc1 [FENOFIBRATE] | Not Active | Not Active | Not Active | Not Active | Not Active | Not Active | Not Active |  |  |  |  |  |  |  |  |  |  | 
6 | C[C@@H](O)[C@H]1C(=O)N2C(C(=O)O)=C(S[C@@H]3CN[C@H](C(=O)N(C)C)C3)[C@H](C)[C@H]12 [MEROPENEM] | Not Active | Not Active | Not Active | Not Active | Not Active |  | Not Active | Not Active | Not Active |  |  |  |  |  |  |  |  | 
7 | CC[C@@H](CO)NC(=O)[C@@H]1C=C2c3cccc4c3c(cn4C)C[C@H]2N(C)C1 [METHYSERGIDE] | Not Active | Not Active |  | Not Active | Not Active | Not Active | Not Active |  |  |  |  |  |  |  |  |  |  | 
8 | CC(C)(C)NC[C@H](O)COc1nsnc1N1CCOCC1 [TIMOLOL] | Not Active | Not Active | Not Active |  |  |  | Not Active | Not Active | Not Active |  |  |  |  |  |  |  |  | 
9 | CCN(CC)CC#CCOC(=O)C(O)(c1ccccc1)C1CCCCC1 (configuration not stated) [OXYBUTYNIN] |  | Not Active |  | Not Active | Not Active |  | Not Active |  |  |  |  |  |  |  |  |  |  | 
10 | O=c1[nH]c2ccccc2n1CCCN1CCC(n2c(=O)[nH]c3cc(Cl)ccc32)CC1 [DOMPERIDONE] | Not Active | Not Active |  |  |  |  | Not Active |  |  |  |  |  |  |  |  |  |  | 
11 | CC1=C(CC(=O)O)c2cc(F)ccc2/C1=C\c1ccc(S(C)(=O)=O)cc1 [EXISULIND] | Not Active | Not Active | Not Active | Not Active | Not Active | Not Active | Not Active | Not Active | Not Active |  |  |  |  |  |  |  |  | 
12 | COc1ncnc(NS(=O)(=O)c2ccc(N)cc2)c1OC [SULFADOXINE] | Not Active | Not Active | Not Active | Not Active | Not Active | Not Active | Not Active | Not Active | Not Active |  |  |  |  |  |  |  |  | 
13 | CC(=O)Nc1nnc(S(N)(=O)=O)s1 [ACETAZOLAMIDE] | Not Active | Not Active | Not Active | Not Active | Not Active | Not Active | Not Active |  |  |  |  |  |  |  |  |  |  | 
14 | CO[C@H]1C[C@@H]2CC[C@@H](C)[C@@](O)(O2)C(=O)C(=O)N2CCCC[C@H]2C(=O)O[C@H]([C@H](C)C[C@@H]2CC[C@@H](O)[C@H](OC)C2)CC(=O)[C@H](C)/C=C(\C)[C@@H](O)[C@@H](OC)C(=O)[C@H](C)C[C@H](C)/C=C/C=C/C=C/1C [SIROLIMUS] | Not Active | Not Active | Not Active |  |  | Not Active | Not Active | Not Active | Not Active |  |  |  |  |  |  |  |  | 
15 | OCCN1CCN(CCCN2c3ccccc3Sc3ccc(C(F)(F)F)cc32)CC1 [FLUPHENAZINE] |  | Not Active |  |  |  | Not Active | Not Active |  |  | 39 | 25 | 3470 | 484 |  |  |  |  | 
16 | Cc1cn([C@H]2C[C@H](N=[N+]=[N-])[C@@H](CO)O2)c(=O)[nH]c1=O [ZIDOVUDINE] | Not Active | Not Active | Not Active | Not Active | Not Active | Not Active | Not Active | Not Active | Not Active |  |  |  |  |  |  |  |  | 
17 | THIMEROSAL | Not Active | Not Active | Not Active | Not Active | Not Active | Not Active | Not Active | Not Active | Not Active |  |  |  |  | Not Active | Not Active | Not Active | Not Active | Not Active
18 | Nc1ccc(S(=O)(=O)Nc2ncccn2)cc1 [SULFADIAZINE] | Not Active | Not Active | Not Active | Not Active | Not Active |  | Not Active | Not Active | Not Active |  |  |  |  |  |  |  |  | 
19 | COc1cc(N)nc2[nH]c(-c3ccc(F)cc3)c(-c3ccncc3)c12 | Not Active | Not Active | Not Active |  |  | Not Active | Not Active | Not Active | Not Active |  |  |  |  |  |  |  |  | 
20 | CN(CCOc1ccc(CC2SC(=O)NC2=O)cc1)c1ccccn1 (configuration not stated) [ROSIGLITAZONE] | Not Active | Not Active | Not Active |  |  | Not Active | Not Active | Not Active | Not Active |  |  |  |  |  |  |  |  | 
21 | C=C(C)[C@H]1Cc2c(ccc3c2O[C@@H]2COc4cc(OC)c(OC)cc4[C@@H]2C3=O)O1 [ROTENONE] | Not Active | Not Active | Not Active | Not Active | Not Active |  | Not Active | Not Active | Not Active |  |  |  |  |  |  |  |  | 
22 | O=c1n(CCCN2CCN(c3cccc(Cl)c3)CC2)nc2ccccn12 [TRAZODONE] | Not Active | Not Active |  | Not Active | Not Active |  | Not Active |  |  |  |  |  |  |  |  |  |  | 
23 | O=C(O)C(Cl)(Cl)Cl [TRICHLOROACETIC ACID] | Not Active | Not Active | Not Active | Not Active | Not Active |  | Not Active | Not Active | Not Active |  |  |  |  |  |  |  |  | 
24 | CNS(=O)(=O)Cc1ccc2[nH]cc(CCN(C)C)c2c1 | Not Active | Not Active | Not Active | Not Active | Not Active |  | Not Active | Not Active | Not Active |  |  |  |  |  |  |  |  | 
25 | CCCc1nn(C)c2c(=O)[nH]c(-c3cc(S(=O)(=O)N4CCN(C)CC4)ccc3OCC)nc12 | Not Active | Not Active | Not Active | Not Active | Not Active |  | Not Active | Not Active | Not Active |  |  |  |  |  |  |  |  | 
26 | Nc1nc2c(c(=O)[nH]1)N(C=O)C(CNc1ccc(C(=O)N[C@@H](CCC(=O)O)C(=O)O)cc1)CN2 (some centres not stated) [LEUCOVORIN] | Not Active | Not Active | Not Active | Not Active | Not Active |  | Not Active | Not Active | Not Active |  |  |  |  |  |  |  |  | 
27 | CCS(=O)(=O)CCn1c([N+](=O)[O-])cnc1C [TINIDAZOLE] | Not Active | Not Active | Not Active |  |  | Not Active | Not Active | Not Active | Not Active |  |  |  |  |  |  |  |  | 
28 | CN1C2CCCC1CC(NC(=O)c1nn(C)c3ccccc13)C2 (configuration not stated) [GRANISETRON] | Not Active | Not Active | Not Active | Not Active | Not Active | Not Active | Not Active |  |  |  |  |  |  |  |  |  |  | 
